In assay [1] the target is human GYS1 (glycogen synthase) (Homo sapiens (Human), UniProt P13807). The assay can be described thus: Measurement of glycogen synthase activity (coupled pyruvate kinase/lactate dehydrogenase assay, absorbance at 340 nm). Type of assay: biochemical. The settings on record: concentration inducing relative activity of 50% (100% = Ex. 1 of WO/2011/058154 at 10 μM). The method, boiled down: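 GYS1 expressed in HEK293T cells, with the lysate pellet used as enzyme. Reaction with glucose-6-phosphate, glycogen, UDP-glucose, PEP and NADH, pH 7.3, incubated 30° C for 25 min or 37° C for 20 min, then A340 read. EC50 relative to a reference activator at 10 μM set as 100%.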

The target in assay [2] is PPAR-α (Homo sapiens (Human), UniProt Q07869). Description: Measurement of PPAR-α activity (GAL4 luciferase reporter assay in CV-1 cells). It is filed as cell-based. The settings on record: 100(A/B), B = compound in WO/2011/058154 at 100 μM, read-out: PPARα relative fold induction (%). As for the experimental part: The PPAR-α activity was measured according to the published article (THE JOURNAL OF BIOLOGICAL CHEMISTRY Vol. 270, No. 22, 12953-12956, 1995).
Plasmids used for the PPAR-α activity measurement were constructed as follows. A luciferase expression plasmid (UASx5-TK-Luc) used was obtained by introducing a sequence, in which five yeast GAL4-binding sequences are linked in tandem, upstream of a thymidine kinase promoter of pTAL-Luc (Takara Bio Inc., 6252-1). A PPAR-α receptor expression plasmid (hGR-GAL4-hPPARα) used was obtained by introducing a human GR N-terminal region (1-76 aa), a yeast GAL4 DNA-binding region (1-147 aa), and a PPARα ligand-binding region (167-468 aa) between a Not I site and a Sal I site of pExchange-1 Core Vector (Invitrogen Corporation, 211176).
A reporter assay was conducted by the following method using Cercopithecus aethiops kidney-derived CV-1 cells. The CV-1 cells were seeded in a 96-well plate (Thermo Fisher Scientific Inc., 4938) at 2×10^4 cells/well using a 10% FBS-containing DMEM (Nacalai Tesque, Inc., 0845874) medium. After culturing under conditions of 37° C. and 5% CO2 for 2 hours, the plasmids were transfected. Lipofectamine LTX (Invitrogen Corporation, 15338-100) was used for the transfection according to the attached manual. The plasmid solution was prepared by adding a mixture solution of the luciferase expression plasmid and the PPAR-α receptor expression plasmid to OPTI-MEM I (Invitrogen Corporation, 11058-021). After the transfection was conducted, the test compound was added, and cultured at 37° C. in the presence of 5% CO2 for 18 to 20 hours. After the culturing was completed, the luciferase activity was measured with Luminescensor JNR (ATTO) using Bright-Glo (Promega Corporation, E2620).
The fold induction of PPAR-α by the test compounds was calculated by the following method. For the compounds of Examples 1, 4, 5, 7, and 9, PPAR-α relative fold induction (%) was defined as 100 (A/B), where A represents the maximum value of PPAR-α activities with the test compound at 0.3 μM, 1 μM, 3 μM, 10 μM, 30 μM, and 100 μM, and B represents the PPAR-α activity with the compound in WO/2011/058154 at 100 μM. For the compounds of Examples 11, 15, 19, 22, 26, and 32, PPAR-α relative fold induction (%) was defined as 100 (A/B), where A represents the maximum value of PPAR-α activities with the test compound at 3 μM, 10 μM, 30 μM, and 100 μM, and B represents the PPAR-α activity with the compound in WO/2011/058154 at 100 μM.

The mark [3] stands for this setting: incubation at 37° C. for 20 minutes (Examples 11 to 75).
[4] abbreviates: test concentrations not stated for these examples.
Where [5] appears, read: A = maximum activity at 3, 10, 30 and 100 μM.
The mark [6] stands for this setting: incubation at 30° C. for 25 minutes (Examples 1 to 10).
The mark [7] stands for this setting: A = maximum activity at 0.3, 1, 3, 10, 30 and 100 μM.

Counter-ions that a name gives are not always drawn. Like-named read-outs stand apart in the source and are kept apart here.

Chain of PPAR-α (Q07869 167-468): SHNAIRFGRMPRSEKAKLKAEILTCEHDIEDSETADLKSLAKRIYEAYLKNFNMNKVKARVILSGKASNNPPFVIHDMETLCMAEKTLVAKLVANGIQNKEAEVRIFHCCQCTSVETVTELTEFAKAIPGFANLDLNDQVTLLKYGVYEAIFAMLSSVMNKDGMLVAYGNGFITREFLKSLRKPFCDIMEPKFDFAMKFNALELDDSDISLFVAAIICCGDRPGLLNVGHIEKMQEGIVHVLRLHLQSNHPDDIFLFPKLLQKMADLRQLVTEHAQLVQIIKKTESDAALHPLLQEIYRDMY
Chain of human GYS1 (glycogen synthase) (P13807 whole entry): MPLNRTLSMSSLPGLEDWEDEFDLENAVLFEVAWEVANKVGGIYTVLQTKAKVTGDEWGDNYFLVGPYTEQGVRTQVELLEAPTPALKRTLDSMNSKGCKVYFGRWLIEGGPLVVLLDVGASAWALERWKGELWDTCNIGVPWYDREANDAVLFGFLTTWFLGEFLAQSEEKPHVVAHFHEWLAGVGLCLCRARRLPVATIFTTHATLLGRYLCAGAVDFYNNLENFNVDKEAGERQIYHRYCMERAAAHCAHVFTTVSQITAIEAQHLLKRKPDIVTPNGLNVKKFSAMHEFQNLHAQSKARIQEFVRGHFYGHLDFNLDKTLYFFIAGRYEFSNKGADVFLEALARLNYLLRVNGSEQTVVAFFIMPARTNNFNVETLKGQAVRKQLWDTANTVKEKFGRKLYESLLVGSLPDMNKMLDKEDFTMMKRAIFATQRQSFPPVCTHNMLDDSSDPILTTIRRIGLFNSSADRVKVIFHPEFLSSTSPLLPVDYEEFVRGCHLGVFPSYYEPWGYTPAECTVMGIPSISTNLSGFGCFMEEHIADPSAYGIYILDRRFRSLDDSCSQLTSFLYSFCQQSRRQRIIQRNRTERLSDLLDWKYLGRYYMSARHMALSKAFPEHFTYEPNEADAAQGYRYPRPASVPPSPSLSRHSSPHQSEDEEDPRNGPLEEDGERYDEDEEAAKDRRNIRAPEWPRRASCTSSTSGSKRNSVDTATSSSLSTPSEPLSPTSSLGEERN

Regarding `CC(=O)COc1cc(-c2ccc(OCc3cccc(C(=O)N4CCC[C@H]4C(=O)O)c3)cc2)cc(F)c1F` [compound of Ex. 49, 1-[3-({[3′,4′-difluoro-5′-(2-oxopropoxy)biphenyl-4-yl]oxy}methyl)benzoyl]-L-proline], it took 220 nM to reach a half-maximal effect in assay [1] (setting [3]) (EC50). The Emax in assay [2] (setting [4]) was found to be 17%.
For `N#Cc1coc2c(-c3ccc(OCc4cccc(C(=O)N5CCC[C@H]5C(=O)O)c4)cc3)cc(F)c(F)c12` [compound of Ex. 53], in that order: 610 nM and 15%.
For `N#CCSc1cc(F)c(F)cc1-c1ccc(OCc2cccc(C(=O)N3CCC[C@H]3C(=O)O)c2)cc1` [compound of Ex. 71, 1-{3-[({2′-[(cyanomethyl)thio]-4′,5′-difluorobiphenyl-4-yl}oxy)methyl]benzoyl}-L-proline], in that order: 38 nM and 8.6%.
For `O=C(O)[C@@H]1CCCN1C(=O)c1cccc(COc2ccc(-c3cc(F)c(F)cc3S)cc2)c1` [compound of Ex. 40, 1-(3-{[(4′,5′-difluoro-2′mercaptobiphenyl-4-yl)oxy]methyl}benzoyl)-L-proline], in that order: 110 nM and 10%.
`O=C(O)[C@@H]1CCCN1C(=O)c1cccc(COc2ccc(-c3cc(F)c(F)c4ccoc34)cc2)c1` [compound of Ex. 15, 1-(3-{[4-(4,5-difluoro-1-benzofuran-7-yl)phenoxy]methyl}benzoyl)-L-proline]: in assay [1] (setting [3]), the EC50 amounted to 22 nM. Also, in assay [2] (setting [5]), the Emax came out at 20%.
For the compound `O=Cc1cc2c(F)c(F)cc(-c3ccc(OCc4cccc(C(=O)N5CCC[C@H]5C(=O)O)c4)cc3)c2s1` [compound of Ex. 65, 1-(3-{[4-(4,5-difluoro-2-formyl-1-benzothien-7-yl)phenoxy]methyl}benzoyl)-L-proline], the EC50 in assay [1] (setting [3]) came to 300 nM. Moreover, in assay [2] (setting [4]), the Emax is 11%.
For `CC1(C)Cc2cc(F)cc(-c3ccc(OCc4cccc(C(=O)N5CCC[C@H]5C(=O)O)c4)cc3)c2O1` [compound of Ex. 22, 1-(3-{[4-(5-fluoro-2,2-dimethyl-2,3-dihydro-1-benzofuran-7-yl)phenoxy]methyl}benzoyl)-L-proline], in assay [1] (setting [3]), the EC50 came out at 180 nM. Moreover, the Emax in assay [2] (setting [5]) is 15%.
For `O=C(O)[C@@H]1CCCN1C(=O)c1cccc(COc2ccc(-c3cccc4[nH]ccc34)cc2)c1` [compound of Ex. 26, 1-(3-{[4-(1H-indol-4-yl)phenoxy]methyl}benzoyl)-L-proline], in that order: 160 nM and 13%.
`O=C(O)[C@@H]1CCCN1C(=O)c1cccc(COc2ccc(-c3cccc4c3OCC=C4)cc2)c1` [compound of Ex. 9] came in with an EC50 in assay [1] (setting [6]) of 320 nM. Also, the Emax in assay [2] (setting [7]) amounted to 11%.
For `O=C(O)[C@@H]1CCCN1C(=O)c1cccc(COc2ccc(-c3cc(F)cc4c3OCC4)cc2)c1` [compound of Ex. 1, 1-(3-{[4-(5-fluoro-2,3-dihydro-1-benzofuran-7-yl)phenoxy]methyl}benzoyl)-L-proline], in that order: 260 nM and 10%.
In turn, `O=C(O)[C@@H]1CCCN1C(=O)c1cccc(COc2ccc(-c3cc(F)c(F)c4cc(CO)oc34)cc2)c1` [compound of Ex. 70, 1-[3-({4-[4,5-difluoro-2-(hydroxymethyl)-1-benzofuran-7-yl]phenoxy}methyl)benzoyl]-L-proline] yielded an EC50 in assay [1] (setting [3]) of 200 nM. Also, in assay [2] (setting [4]), the Emax stood at 7.9%.
With `O=C(O)[C@@H]1CCCN1C(=O)c1cccc(COc2ccc(-c3cccc4ccoc34)cc2)c1` [compound of Ex. 7], in assay [1] (setting [6]), the EC50 was determined as 260 nM. Moreover, in assay [2] (setting [7]), the Emax was 17%.
Regarding `O=C(O)[C@@H]1CCCN1C(=O)c1cccc(COc2ccc(-c3cc(F)c(F)cc3/C=N/O)cc2)c1` [compound of Ex. 52, 1-{3-[({4′,5′-difluoro-2′-[(hydroxyimino)methyl]biphenyl-4-yl}oxy)methyl]benzoyl}-L-proline], the EC50 in assay [1] (setting [3]) is 61 nM. In assay [2] (setting [4]), the Emax is 18%.
As for `O=C(O)[C@@H]1CCCN1C(=O)c1cccc(COc2ccc(-c3cccc4c3OCC4)cc2)c1` [compound of Ex. 5], in assay [1] (setting [6]), the midpoint of the response, the EC50, lay at 500 nM. Further, the Emax in assay [2] (setting [7]) came out at 10%.
In the case of `O=C1COc2c(cccc2-c2ccc(OCc3cccc(C(=O)N4CCC[C@H]4C(=O)O)c3)cc2)N1` [compound of Ex. 32, 1-(3-{[4-(3-oxo-3,4-dihydro-2H-1,4-benzoxazin-8-yl)phenoxy]methyl}benzoyl)-L-proline], the EC50 in assay [1] (setting [3]) is 750 nM. Further, the Emax in assay [2] (setting [5]) worked out at 3%.
`N#CCNc1cc(-c2ccc(OCc3cccc(C(=O)N4CCC[C@H]4C(=O)O)c3)cc2)cc(F)c1F` [compound of Ex. 42, 1-{3-[({3′-[(cyanomethyl)amino]-4′,5′-difluorobiphenyl-4-yl}oxy)methyl]benzoyl}-L-proline trifluoroacetic acid salt] showed an EC50 in assay [1] (setting [3]) of 54 nM. Also, the Emax in assay [2] (setting [4]) turned out to be 13%.
The compound `O=C(O)[C@@H]1CCCN1C(=O)c1cccc(COc2ccc(-c3cc(F)c(F)c4c3OCC4)cc2)c1` [compound of Ex. 19, 1-(3-{[4-(4,5-difluoro-2,3-dihydro-1-benzofuran-7-yl)phenoxy]methyl}benzoyl)-L-proline] displayed an EC50 in assay [1] (setting [3]) of 31 nM. Also, the Emax in assay [2] (setting [5]) is 12%.
In assay [1] (setting [3]), `O=Cc1cc(F)c(F)cc1-c1ccc(OCc2cccc(C(=O)N3CCC[C@H]3C(=O)O)c2)cc1` [compound of Ex. 43, 1-(3-{[(4′,5′-difluoro-2′-formylbiphenyl-4-yl)oxy]methyl}benzoyl)-L-proline] returned an EC50 of 70 nM. Further, the Emax in assay [2] (setting [4]) was 11%.

A word on the EC50: it is the concentration giving half of the maximal effect.

The record behind these values is patent publication US9290487B2, “Pharmaceutical composition for treating diabetes” (Ajinomoto Co., Inc., priority 2011, dated 2016).
